Assay results as given in US5532372A, “Imide derivatives, and their production and use” (Sumitomo Pharmaceuticals Company, Ltd., priority 1990, dated 1996).
Like-named read-outs stand apart in the source and are kept apart here.

Key:
in vivo = conditions: mouse, po
[1] = Catalepsy inducing activity (extrapyramidal side-effect); design: species or system male mice; conditions: mouse, in vivo; oral, one hour later, mice; Table 5
Source text: A designated amount of the test compounds is orally administered to male mice, and one hour later a pair of forepaws are forcedly hanged on an iron pipe (diameter, 2.5 mm) horizontally set at a height of 5 cm. At least one cataleptic state of more than 30 second per three trials is regarded as positive.

mice = assay: Anti-climbing activity (in vivo), climbing behavior induced by apomorphine in mice; design: species or system mice (ddY strain male); conditions: Mus musculus, 1 h, read-out: ED50 (50% suppressive dose) of climbing behavior
Source text: (ii) Anti-climbing activity (in vivo)
This activity is examined through the anti-climbing behavior test, i.e. the test for suppressing the climbing behavior induced by apomorphine in mice.
A designed amount of the test compound is orally administered to several groups of ddY strain male mice (bodyweight, 20 to 25 g; one group, 5 mice), and each of the animals is placed in an individual column cage of 12 cm in diameter and 14 cm in height having metal poles (each pole, 2 mm in diameter) vertically installed and arranged along the periphery with intervals of 1 cm. After 60 minutes, apomorphine (1.0 mg/kg) is subcutaneously injected, and the behavior is observed during 10 to 20 minutes.
0 All the paws are on the floor
1 only forepaws seize the pole of the cage
2 All the paws seize the pole of the cage;
climbing behavior observed discontinuously
3 Continuous climbing behavior observed

dopamine D2 receptor = target: T1, dopamine D2 receptor (Rattus norvegicus, UniProt P61169); assay: Dopamine D2 receptor binding assay (in vitro), [3H] raclopride; conditions: at the concentration of 0.01 μM; Table 3; read-out: Antipsychotic activity (% inhibition), inhibition of [3H] raclopride binding to D2 receptors
T1 construct: from tissue; host or cells: rat corpus striatum, membrane fractions

[2] = oral, 60 minutes before apomorphine (1.0 mg/kg s.c.), mice, Table 4

T1 sequence (P61169 whole entry): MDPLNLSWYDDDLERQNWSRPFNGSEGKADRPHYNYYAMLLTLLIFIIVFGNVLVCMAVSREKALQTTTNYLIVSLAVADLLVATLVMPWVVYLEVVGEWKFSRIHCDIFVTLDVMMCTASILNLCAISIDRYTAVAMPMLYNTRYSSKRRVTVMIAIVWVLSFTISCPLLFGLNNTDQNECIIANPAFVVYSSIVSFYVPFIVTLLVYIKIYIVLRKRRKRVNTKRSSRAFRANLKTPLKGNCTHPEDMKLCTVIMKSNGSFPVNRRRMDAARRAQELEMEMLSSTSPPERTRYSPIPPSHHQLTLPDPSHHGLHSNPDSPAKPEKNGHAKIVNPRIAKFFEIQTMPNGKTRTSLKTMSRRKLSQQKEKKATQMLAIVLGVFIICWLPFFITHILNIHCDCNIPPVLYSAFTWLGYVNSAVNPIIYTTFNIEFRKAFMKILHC

| inhibition at 0.01 µM (dopamine D2 receptor) [%] | SMILES | ED50 at 1 h (in vivo) [mg/kg] | ED50 at 1 h [1] [mg/kg] | ED50 (mice; [2]) [mg/kg] | ED50 (mice; po) [mg/kg] |
| --- | --- | --- | --- | --- | --- |
|  | O=C1[C@@H]2[C@H]3CC[C@H](C3)[C@@H]2C(=O)N1C[C@@H]1CCCC[C@H]1CN1CCN(c2nsc3ccccc23)CC1 (relative stereo) [Compound No. 101] | > 1000 | 747 | 10.3 |  |
| 71 | O=C1[C@H]2CCCC[C@H]2C(=O)N1C[C@@H]1C[C@H]1CN1CCN(c2nsc3ccccc23)CC1 (relative stereo) [Compound No. 107] |  |  | 26.5 |  |
| 24 | O=C(c1ccc(F)cc1)C1CCN(C[C@@H]2C[C@H]2CN2C(=O)[C@H]3CCCC[C@H]3C2=O)CC1 (relative stereo) [compound 161] |  |  |  |  |
| 11 | O=C1[C@@H]2[C@H]3CC[C@H](C3)[C@@H]2C(=O)N1C[C@@H]1C[C@H]1CN1CCN(c2ncccn2)CC1 (relative stereo) [compound 163] |  |  |  |  |
|  | CN(C)CCCN1c2ccccc2Sc2ccc(Cl)cc21 [Chlorpromazine, reference compound] |  | 18 |  | 4.2 |
| 90 | O=C1[C@@H]2[C@H]3CC[C@H](C3)[C@@H]2C(=O)N1C1CCCC(CN2CCN(c3nsc4ccccc34)CC2)C1 (stereo partly shown) [Compound No. 106] |  |  |  |  |
|  | O=C(CCCN1CCC(O)(c2ccc(Cl)cc2)CC1)c1ccc(F)cc1 [Haloperidol, reference compound] | 4.1 | 3.1 | 0.67 |  |
